For one assay, the system named is WT myotubes. The experiment in a line: 14C-oleate (fatty acid) oxidation in myotubes. In kind it is cell-based, mouse. As for the experimental part: (§1) Glucose and insulin tolerance tests were performed as previously described (Lee et al., 2007, Cell 130:456-469). For in vivo glucose uptake, a bolus of 2-deoxy-d-[^3H]glucose (^3H-2-DG, Perkin Elmer) (10 μCi) was administered before an endurance run. ^3H-2-DG and ^3H-2-DG-6-P content in muscle was determined by liquid scintillation counter and normalized to muscle weight. Glucose uptake and fatty acid oxidation assays in myotubes were performed as previously described (Sebastian et al., 2007, Am. J. Physiol. Endocrinol. Metab. 292:E667-686). GLUT4 translocation was determined by flow cytometry using an antibody against the extracellular domain of the GLUT4 protein (Santa Cruz, Sc-1606). Measurements of oxygen consumption rates (OCR) in isolated myofibers were performed using a XF24 Seahorse Analyzer® (Seahorse Biosciences). To analyze mitochondrial function, myofibers were treated with three compounds in succession (oligomycin 10 μg/ml, FCCP 200 μM, rotenone 0.2 μM) and OCR was recorded following administration of each of them.
(§2) Culture of skeletal muscle myoblasts from 7 day-old mice was performed as described (Gharaibeh et al., 2008, Nature Protocols 3:1501-1509). Myoblasts were differentiated into myotubes for 3-4 days in a medium containing 5% horse serum. Muscle fibers were isolated from flexor digitorum brevis muscle. Muscles were dissected with DMEM 2% collagenase for 2 hours at 37° C., in a 5% CO2 incubator. Muscle fibers were disaggregated from the tissue using a wide bore pipet and plated in matrigel-coated plates at approximately 50% confluence. After overnight incubation, isolated myofibers were used.

A further assay deals with Gprc6a−/− myotubes. As to the kind of experiment: 14C-oleate (fatty acid) oxidation in myotubes. In kind it is cell-based, mouse. The method, then:
as §1, §2

The subject of a further assay is wild-type mice. The experiment in a line: Allergen-triggered asthma-like condition, osteocalcin delivery. In kind it is in vivo, mouse. The method, then: The level of acetylcholine, a neurotransmitter that causes bronchoconstriction, is increased in the lungs but not in the brains of Osteocalcin^−/− and Gprc6a^−/− mice.
When metacholine is administered to the lungs of mice, the lung airways constrict. […] Wild-type mice were treated with an inflammation-increasing agent and developed asthma that included bronchoconstriction and signs of inflammation.

The test system of another assay is WT mice. As to the kind of experiment: D/LT and EPMT in adult WT mice with ICV infusion. In kind it is in vivo, mouse. The method, then:
FIG. 14. Osteocalcin improves cognitive function in adult wild-type (WT) mice. Results from dark and light (DLT) and elevated plus maze tests (EPMT) performed in 3-month old WT mice infused ICV with vehicle (PBS) or recombinant uncarboxylated osteocalcin (Ocn) (3, 10, 30 ng/hour) are shown. (A) DLT measuring the latency to enter, the number of entries, and the time spend in lit compartment. (B) EPMT measuring the number of entries into open arms and the time spend in […].
Each mouse was allowed to explore the apparatus for 5 min. Global activity was assessed by measuring the number of entries […] (David et al, 2009, Neuron 62:479-493). Anxiety was assessed by comparing the time spent in the open arms.
The test was performed in a quiet, darkened room. Mice were individually housed in cages containing a handful of bedding from their home cage and acclimated to the room at least 1 h before the test. Naïve mice were placed individually in the testing chamber in the dark compartment. The test was 5 min in duration, and time spent and number of entries in light compartments were recorded a highly trained observer, blind to the genotype of the mice.
To determine if osteocalcin is sufficient to improve cognitive function in adult mice, WT 2-month old mice were implanted with ICV pumps delivering vehicle (PBS), or 3, 10, or 30 ng/hr recombinant uncarboxylated full-length mouse osteocalcin for a period of one month. After one month of infusion, animals were subjected to behavioral testing. […] This improvement is evidenced by an increase in the exploration of the lit compartment and open arms in the D/LT and EMP tests, respectively (FIG. 14A-B).

Where [1] appears, read: delivery by nebulization (two weeks).
[2] abbreviates: 3 or 10 ng/hour ICV for one month.

This note sets out measurements from US11191811B2, “Osteocalcin as a treatment for frailty associated with aging” (THE TRUSTEES OF COLUMBIA UNIVERSITY IN THE CITY OF NEW YORK, priority 2014, dated 2021).

“Also recorded” adds a separate entry of the source.

As for “uncarboxylated osteocalcin: Recombinant uncarboxylated mouse osteocalcin, bacterially produced, purified on glutathione beads and cleaved from the GST subunit by thrombin (YLGASVPSPDPLEPTREQCELNPACDELSDQYGLKTAYKRIYGITI)”, in the assay on WT myotubes (WT myotubes), the 14C-oleate oxidation entry is reported as “increase”. Further, the fatty acid oxidation entry in the assay on WT myotubes (summary statement, in muscle) is given as “favors”. Also, the 14C-oleate oxidation result in the assay with Gprc6a−/− myotubes is given as “could not increase”. For the same substance, in the assay with wild-type mice (setting [1]), the bronchoconstriction entry was “completely rescued” and the “local inflammation / inflammatory signs” value is “without affecting; also recorded: still observed”. For the same substance, the bronchoconstriction entry in the assay with wild-type mice (osteocalcin delivered to the brains) was “did not show a similar effect”. Besides, in the assay on WT mice (setting [2]), the “exploration of the lit compartment (D/LT)” value is “increase” and the “exploration of the open arms (EPMT)” value was “increase”. For the same substance, the anxiety-like behavior entry in the assay with WT mice (3 or 10 ng/hour ICV for one month, WT 2-month old mice) is listed as “decrease”. The cognitive function result with WT mice (adult WT mice, ICV 3, 10, 30 ng/hour (FIG. 14 title)) is “improves”.
